{"source": "patent US20190345478A1", "about": "“T[…] AND SYSTEMS FOR DIAGNOSIS AND TREATMENT OF MALARIA” (WILLIAM MARSH RICE UNIVERSITY, priority 2012, published 2019)", "system": "Plasmodium falciparum (strain 3D7)", "test": "Parasiticidal effect: level of parasitemia (percentage of MIRBCs) after bulk flow treatment of P. falciparum-infected human RBCs", "assay_type": "cell-based", "settings": "chloroquine 1 μM added immediately prior to flow treatment; PTNB mode 70 ps laser pulse; level of MIRBCs at 24 hours; FIG. 12c"}
{"smiles": "CCN(CC)CCCC(C)Nc1ccnc2cc(Cl)ccc12", "note": "(stereo not shown) [chloroquine]", "values": [{"measurement": "parasiticidal efficacy of PTNB mode compared with chloroquine", "value": "three-fold higher parasiticidal efficacy than chloroquine"}]}
